Legend:
clinical = settings: human, plasma, oral
[1] = Pharmacokinetic analysis of sorafenib in plasma of patients; format: in vivo, human; settings: compared with previous studies of 400 mg b.i.d. sorafenib
[2] = Day 1 of Cycle 2 vs Day 5 of Cycle 1
[3] = geometric mean, with vs without sorafenib

Structure (SMILES)	AUC(0-t) (clinical; AUC(0–24) Cycle 1, geometric mean, Day 5, Cycle 1, without sorafenib) [ng·h/mL]	AUC(0-t) (clinical; AUC(0–24) Cycle 2, geometric mean, Day 1, Cycle 2, with 400 mg bid sorafenib) [ng·h/mL]	average decrease in t1/2 when co-administered with sorafenib [2] [%]	average decrease of AUC (0–24) when co-administered with sorafenib [2] [%]	average reduction of Cmax when co-administered with sorafenib [2] [%]	AUC(0–24) Ratio cycles 2/1, geometric mean [3]	Cmax Ratio cycles 2/1, geometric mean [3]	circulating concentrations of sorafenib when dosed in combination with cyclophosphamide and letrozole [1]
O=P1(N(CCCl)CCCl)NCCCO1 (centres unmarked) [cyclophosphamide]	16700	11900	27	29	12	0.71	0.88	
CNC(=O)c1cc(Oc2ccc(NC(=O)Nc3ccc(Cl)c(C(F)(F)F)c3)cc2)ccn1 [sorafenib, Sorafenib]								not significantly affected

— paper PMC4453610 (British Journal of Cancer, 2014)
